Measurements: US10952974B2, “Delivery of bioactive, nanoencapsulated antioxidants” (Board of Supervisors of Louisiana State University and …, priority 2014, dated 2021)
≈ marks a conversion by molar mass, not a printed value. Like-named read-outs stand apart in the source and are kept apart here.

Key:
[1] = Solubility of lutein in water and organic solvents; type: physicochemical; details: chloroform vs ethanol
[2] = system: selenite-induced cataract; assay: Selenite-induced cataract in rat pups, first animal study; type: in vivo, Wistar albino rat
Method: Four pregnant Wistar female albino rats were obtained from the Laboratory Animal Facility of the Iuliu Hatieganu University of Medicine and Pharmacy in Cluj-Napoca, Romania. Each female rat and its litter of pups were housed in plastic cages, on a 12 h lighting cycle, at constant temperature (22° C.) with free access to rat chow and tap water. At 12 days of age, the rat pups were randomized into seven groups as follows:
Group 1 (selenite group, positive control): no exposure to lutein
Group 2 (PLGA-NP-1) daily received orally, by gavage, 2.5 mg/kg PLGA-NP-lutein dispersed in a 0.5 mL emulsion of 30% olive oil+70% flour slurry, corresponding to a daily dose of 2.66 mg lutein/kg body mass. (The flour slurry, in turn, had been prepared by mixing 0.3 g flour in 1 ml water.)
Group 3 (PLGA-NP-2) daily received orally, by gavage, 5 mg/kg PLGA-NP-lutein dispersed in 0.5 mL emulsion of 30% olive oil+70% flour slurry, corresponding to a daily dose of 5.32 mg lutein/kg body mass. (Flour slurry: identical to that used for Group 2
Group 4 (lutein) daily received orally, by gavage, 0.00525 mg unmodified lutein dispersed in 0.5 mL emulsion of 30% olive oil+70% flour slurry, corresponding to a daily dose of 0.125 mg lutein/kg body mass. (Flour slurry: identical to that used for Group 2.)
Group 5 (HG-PLGA-NP-1) was treated locally, once a day, with corneal application (1 drop in each eye) of 1 wt % PLGA-NP-lutein in the bioadhesive hydrogel of Example 19. (30 mg of lyophilized lutein-loaded PLGA NPs were dissolved in 3 ml of bioadhesive hydrogel. The volume of one drop of hydrogel was approx. 0.012 mL, with a density of 0.9444 g/mL.)
Group 6 (HG-PLGA-NP-2) was treated locally, once a day, by corneal application (1 drop/in each eye) with 3% PLGA-NP-lutein in a bioadhesive hydrogel. (90 mg of lyophilized lutein-loaded PLGA NPs were dissolved in 3 ml of bioadhesive hydrogel. The volume of one drop of hydrogel was approx. 0.012 mL, with a density of 0.9444 g/mL.)
Group 7 (negative control)—no exposure to selenite, and no lutein treatment.
On day 13 post-partum, cataracts were induced in all animals in Groups 1-6 with a single, intraperitoneal injection of sodium selenite (Na2SeO3), 30 μmol/kg. Subsequently, the animals from groups 2-6 were treated daily, in accordance with the protocols described above. The lutein content of the PLGA-NPs (42.61 μg lutein/mg PLGA-NP) was assessed by UV-VIS spectrophotometry (450 nm) with an external standard calibration. On day 21 post-partum, cataract development was evaluated by slit-lamp examination. Eyes were scored into one of five stages: stage 0 (no cataract), stage 1 (slight nucleus opacity), stage 2 (mild nucleus opacity, a central while opacity occupying less than half the diameter of the nucleus), stage 3 (dense opacity, a central while opacity occupying more than half the diameter of the nucleus) and stage 4 (dense, white opacity over the whole nucleus). Statistics were performed in SPSS 14.0 for Windows and Excel. The variables were checked for normal distribution with the Shapiro-Wilk test. Groups were compared with the Wilcoxon test. Statistical significance was set at p<0.05.

[3] = cited from earlier work
[4] = cited from earlier work; remark: listed apart in the source
[5] = oral gavage daily, 0.125 mg lutein/kg, day 21 postpartum

With `CC1=C[C@H](O)CC(C)(C)[C@H]1/C=C/C(C)=C/C=C/C(C)=C/C=C/C=C(C)/C=C/C=C(C)/C=C/C1=C(C)C[C@@H](O)CC1(C)C` [Lutein, β,ε-carotene-3,3′-diol] as the molecule, how does the “solubility in chloroform relative to solubility in ethanol” value [1] read?
Its value is 20 times.

What about the “Cataract stage Mean ± SD” value [2, 5] of the same molecule?
Its value is 3.2 ± 0.8.

And the “Stage 0” value [2, 5]?
Its value is 0 no. animals.

What about the “Stage 1” value [2, 5] of the same molecule?
Its value is 0 no. animals.

And the “Stage 2” value [2, 5]?
Its value is 1 no. animals.

What about the “Stage 3” value [2, 5] of the same molecule?
The value was 2 no. animals.

What about the “Stage 4” value [2, 5] of the same molecule?
Its value is 2 no. animals.

What about the “reduction in cataract development vs selenite group” value ([2]; treated orally) of the same molecule?
The value was “small (and statistically insignificant) reduction in cataract development”.

What about the Stability ([3]; stored at −20° C. under a nitrogen atmosphere) of the same molecule?
The Stability was “Stable if stored at −20 °C under a nitrogen”.

What about the Stability ([3]; to light and oxygen) of the same molecule?
Its Stability is “Unstable to light and oxygen;”.

And the Solubility ([4]; in 2-Propanol)?
Its Solubility is 400 µg/mL (≈ 703 µM).

And the Solubility ([4]; in Acetone)?
The Solubility was 800 µg/mL (≈ 1410 µM).

What about the Solubility ([4]; in Acetonitrile) of the same molecule?
The Solubility was 100 µg/mL (≈ 176 µM).

And the Solubility ([4]; in Benzene)?
The Solubility was 600 µg/mL (≈ 1050 µM).

And the Solubility ([4]; in Chloroform)?
The Solubility was 6000 µg/mL (≈ 10500 µM).

And the Solubility ([4]; in Cyclohexane)?
The Solubility was 50 µg/mL (≈ 87.9 µM).

What about the Solubility ([4]; in Cyclohexanone) of the same molecule?
The Solubility was 4000 µg/mL (≈ 7030 µM).

What about the Solubility ([4]; in Dimethyl formamide) of the same molecule?
The Solubility was 1000 µg/mL (≈ 1760 µM).

What about the Solubility ([4]; in Ethyl acetate) of the same molecule?
The Solubility was 800 µg/mL (≈ 1410 µM).

What about the Solubility ([4]; in Ethyl alcohol) of the same molecule?
Its Solubility is 300 µg/mL (≈ 527 µM).

What about the Solubility ([4]; in Ethyl ether) of the same molecule?
The Solubility was 2000 µg/mL (≈ 3520 µM).

What about the Solubility ([4]; in Hexane) of the same molecule?
Its Solubility is 20 µg/mL (≈ 35.2 µM).

What about the Solubility ([4]; in Methyl alcohol) of the same molecule?
The Solubility was 200 µg/mL (≈ 352 µM).

What about the Solubility ([4]; in Methyl tert butyl ether) of the same molecule?
Its Solubility is 2000 µg/mL (≈ 3520 µM).

And the Solubility ([4]; in Tetrahydrofuran)?
Its Solubility is 8000 µg/mL (≈ 14100 µM).

What about the Solubility ([4]; in Toluene) of the same molecule?
The Solubility was 500 µg/mL (≈ 879 µM).

And the Solubility in water [4]?
The Solubility in water was “Insoluble”.

What about the Solubility in water ([4]; listed as lutein) of the same molecule?
Its Solubility in water is “water-insoluble”.
